Test results as given in patent US4654342A, “6-(cyanoguanidinophenyl)pyridazinones as cardiac stimulants” (Smith Kline & French Laboratories Ltd., priority 1984, dated 1987).
pEC50: −log10 of the molar value. Read-outs that look alike come from different tables or passages of the source.

Tests used:
right ventricular strips = assay: Cardiac stimulant activity in vitro, guinea pig ventricular strips (force of contraction); details: Cavia porcellus, 50% increase in force of contraction; guinea pig ventricular strips; read-out: EC50 × 10^-6 M
Procedure: The compounds of formula (I) and their pharmaceutically acceptable salts are tested for cardiac stimulant activity following a procedure based on that of S. C. Verma and J. H. McNeill (J.Pharm & Exp. Therapeutics, 200, 352-362 (1977)). Guinea pigs (500-700 g) of either sex are sacrificed and the hearts are quickly removed and transferred to a dissecting dish containing oxygenated bathing fluid. While in the bathing medium, the right ventricle is cut into two strips. The strips are each suspended in a 50 ml bath containing Krebs Henseleit solution at 37° C., and the bath is bubbled with 95% oxygen and 5% carbon dioxide. The ventricular strips are electrically stimulated at a frequency of 1.0 Hz, at double the threshold voltage. A resting tension of 1.0 g is applied to the strips and the tension is kept constant by readjustment during an equilibration period of 60 minutes. The bathing fluid is frequently changed during this period. When a steady base line is obtained, a compound under test is added to the bathing fluid and a cumulative concentration response curve is plotted. The compounds for use in the present invention which were tested gave a 50% increase in the force of contraction of the ventricular strips at concentrations in the bathing fluid of less than 10^-4 molar, thus showing that they have activity as positive inotropic agents.

[1] = tested on: left ventricular dp/dt max; assay: Cardiac stimulant activity in vivo, anaesthetised cats (left ventricular dp/dt max); parameters: species or system cat; key to Relative Duration: ***: long; **: medium; *: short
Text: The dose to increase left ventricular dp/dt max by 50% is given as the ED50.

[2] = tested on: left ventricular dp/dt max; assay: Cardiac stimulant activity in vivo, conscious dogs (left ventricular dp/dt max); parameters: species or system dog; details: for minimal effective dose: Canis lupus familiaris
Procedure: Oral administration caused positive inotropic responses at doses of 0.25 mg/kg and below. […] Therefore this compound is particularly beneficial with regard to `force-rate` selectivity.

hindquarters blood flow = assay: Vasodilator activity, anaesthetised rat hindquarters autoperfused at constant blood pressure; type: in vivo
Text: The dose to increase hindquarters blood flow by 50% was 4.6 μmol/Kg.

[3] = tested on: 2-pyridylethylamine-induced bronchoconstriction; assay: Bronchodilatation in vivo, 2-pyridylethylamine-induced bronchoconstriction; parameters: species or system guinea-pigs (Dunkin Hartley); details: i.v. bolus one minute before challenge
Procedure: Male guinea-pigs of the Dunkin Hartley strain (530 g±6 g) were anaesthetised with Sagatal (pentobarbital sodium) (90 mg/kg i.p.). Airway resistance was measured using a modification of the classical Konzett-Rossler technique (Versuchsanordnung zu Untersuchungen an der Bronchialmuskulatur. Naunyn-Schmiedebergs Arch. Exp. Path. Pharmak., 30: pp 121-145, (1940)). A dose of 2-pyridylethylamine which gave approximately 100% increase in airway resistance was selected for i.v. administration. Bolus doses of the compound of Example 1 were administered (i.v.) one minute before the 2-pyridylethylamine challenge.

platelets = assay: Platelet aggregation inhibition in vitro (platelet rich plasma); type: cell-based, normal healthy volunteers (human)
Procedure: Plasma was prepared as follows. Blood from 6 normal healthy volunteers was mixed with 3.8% w/v trisodium citrate (9 parts blood: 1 part citrate). The samples were centrifuged at 150 g for 10 minutes and the supernatant platelet rich plasma (PRP) was removed. The platelet concentration in the PRP was adjusted to 300±50×10^9 /1 platelets with autologous platelet poor plasma.
25 μl aliquots of a 40 μg/ml solution of the compound of Example 1 were incubated with 225 μl aliquots of PRP in a Payton Aggregometer for 3 minutes. Control solutions, one matched to the test solution with respect to solution pH and tonicity, and another of 0.9% w/v NaCl were also studied. After 3 minutes 25 μl aliquots of adenosine diphosphate solution at a concentration of 20 μm were added to each solution. The aggregation response was recorded until complete with a maximum of 3 minutes. The procedure was repeated using as different aggregation agents: 100 μg collagen; 100 μm adrenaline or 5 mg/ml arachidonic acid instead of adenosine diphosphate.
The aggregation responses induced by the different aggregation agents were measured for the platelets from each donor. The results were assessed by visual examination of the aggregation tracing produced by the Payton aggregometer and semi-quantitatively assessed by measurement of the light transmission 3 minutes after adding the inducing agent.
Serial dilutions of this compound were prepared and tested for inhibition of adenosine diphosphate induced aggregation.

[4] = i.v., anaesthetised rat hindquarters

pEC50 (right ventricular strips): 5.85
SMILES: CNC(=NC#N)Nc1ccc(C2=NNC(=O)CC2C)cc1 (stereo not drawn) [Example 1, 6-[4-(N^3 -Methyl-N^2-cyanoguanidino)phenyl]-5-methyl-4,5-dihydro-3(2H)-pyridazinone]
ED50 ([1]; Felis catus, intravenous, dose to increase left ventricular dp/dt max by 50%, anaesthetised cats): 0.2 µmol/kg
Relative Duration ([1]; estimated in anaesthetised cats following i.v. administration): ***
changes in blood pressure or heart rate [2]: without changes in blood pressure or heart rate
minimal effective dose ([2]; intravenous, read-out: dose increasing left ventricular dp/dt max): < 0.1 mg/kg
minimal effective dose ([2]; oral, read-out: dose causing positive inotropic responses): ≤ 0.25 mg/kg
persistence of positive inotropic responses ([2]; persisted for up to): 9 to 12 h
ED (50% increase in hindquarters blood flow) (hindquarters blood flow; Rattus norvegicus, iv, anaesthetised rat, read-out: dose to increase hindquarters blood flow by 50%): 4.6 µmol/kg
dose range of dose-dependent vasodilatation (hindquarters blood flow; [4]): 1 to 10 µmol/kg
duration of activity (hindquarters blood flow; [4]): significant duration of activity
ED50 ([3]; Cavia porcellus, iv, read-out: ED50, dose which reduced the 2-pyridylethylamine bronchoconstriction by 50%): 0.39 µmol/kg
minimal effective dose ([3]; Cavia porcellus, read-out: threshold dose): 0.0316 µmol/kg
effect on 2-pyridylethylamine-induced bronchoconstriction [3]: reduced the 2-pyridylethylamine-induced bronchoconstriction
IC100 (platelets; Homo sapiens, Platelet, adenosine diphosphate induced aggregation, serial dilutions, read-out: concentration completely inhibiting second wave aggregation): ≥ 0.5 µg/mL
inhibition of platelet aggregation induced by adenosine diphosphate (platelets; final concentrations of 5 μg/ml, adenosine diphosphate): inhibited platelet aggregation
inhibition of platelet aggregation induced by adrenaline (platelets; final concentrations of 5 μg/ml, adrenaline): inhibited platelet aggregation
inhibition of platelet aggregation induced by arachidonic acid (platelets; final concentrations of 5 μg/ml, arachidonic acid): inhibited platelet aggregation
inhibition of platelet aggregation induced by collagen (platelets; final concentrations of 5 μg/ml, collagen): inhibited platelet aggregation
